In patent US20230212180A1, “SUBSTITUTED PYRAZINE COMPOUND, PHARMACEUTICAL COMPOSITION COMPRISING SAME, AND USE THEREOF” (Sichuan Kelun-Biotech Biopharmaceutical Co., Ltd., priority 2020, published 2023):
pIC50: −log10 of the molar value.

Columns and labels:
[1] = target: T1, recombinant full-length human PTPN11 (SHP2) (Homo sapiens, UniProt Q06124); assay: Inhibition of in vitro enzyme activity of SHP2 (DiFMUP fluorescence endpoint assay); format: biochemical; conditions: SHP2 0.5 nM, DiFMUP 200 μM, IRS-1 0.5 μM; 60 min incubation
T1 construct: recombinant full-length human PTPN11 (SHP2), active (SignalChem); purchased SignalChem
T1 sequence (Q06124 1-593): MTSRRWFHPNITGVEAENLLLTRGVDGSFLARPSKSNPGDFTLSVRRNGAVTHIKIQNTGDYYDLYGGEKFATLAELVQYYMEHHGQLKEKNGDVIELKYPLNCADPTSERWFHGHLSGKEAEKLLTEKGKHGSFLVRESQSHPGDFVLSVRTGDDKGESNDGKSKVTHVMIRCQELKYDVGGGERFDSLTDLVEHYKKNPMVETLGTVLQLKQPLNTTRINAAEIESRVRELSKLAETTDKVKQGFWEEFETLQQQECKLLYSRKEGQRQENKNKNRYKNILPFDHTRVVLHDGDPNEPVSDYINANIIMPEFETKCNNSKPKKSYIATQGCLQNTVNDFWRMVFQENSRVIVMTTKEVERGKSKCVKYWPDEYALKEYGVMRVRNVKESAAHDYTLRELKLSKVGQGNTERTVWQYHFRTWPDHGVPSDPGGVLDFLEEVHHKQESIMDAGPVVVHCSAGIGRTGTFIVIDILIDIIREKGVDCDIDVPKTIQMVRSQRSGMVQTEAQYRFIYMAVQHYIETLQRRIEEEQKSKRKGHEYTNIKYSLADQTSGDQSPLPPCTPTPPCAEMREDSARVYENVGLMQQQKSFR
Experimental: Test Example 1: Experiment on the Inhibition of In Vitro Enzyme Activity of SHP2 (Protein Phosphatase)
phosphatase: recombinant full-length human PTPN11 (SHP2), active (SignalChem);
substrate: 6,8-difluoro-4-methylumbelliferyl phosphate (DiFMUP) (Invitrogen);
activating peptide: IRS1_pY1172(dPEG8)pY1222 (IRS1) (BPS Bioscience);
terminator: bpv(phen) (bpv) (Abcam).
SHP2 concentration: 0.5 nM;
DiFMUP concentration: 200 μM;
IRS-1 concentration: 0.5 μM;
bpv concentration: 160 μM;
buffer systems: 60 mM Hepes pH 7.2; 75 mM NaCl; 75 mM KCl; 0.05% surfactant P20; 1 mM EDTA; 5 mM DTT;
incubation duration of compound and enzyme: 60 minutes;
reaction time of enzyme and substrate: 30 minutes;
parameters for microplate reader: BMG PHERAstar fluorescence microplate reader at an excitation wavelength of 340 nm and an emission wavelength of 450 nm.
Test group: A mixture of the test compound and the phosphatase SHP2 together with the activating peptide IRS-1 were incubated in the buffer system at room temperature for 60 minutes. The substrate DiFMUP was added to initiate the reaction and incubated at room temperature for 30 minutes. Thereafter, bpv was added to terminate the reaction. The reaction plate was placed in the microplate reader, and the fluorescence intensities of the wells in the plate were measured using an endpoint assay.
Negative group: The experimental method for the negative group was the same as that for the test group, except that the test compound was substituted with 0.05% aqueous solution of DMSO.
Blank group: The experimental method for the blank group was the same as that for the test group, except that the test compound was substituted with 0.05% aqueous solution of DMSO and that SHP2 was not added.
The relative inhibitory activity was calculated for the test group at each concentration based on the following equation: inhibition rate (%)=100%−(the fluorescence intensity of the test group−the fluorescence intensity of the blank group)/(the fluorescence intensity of the negative group−the fluorescence intensity of the blank group)×100%. The half maximal inhibitory concentration (IC50) of the compound was calculated by fitting the curve according to the four-parameter logistic model.

[2] = tested on: KYSE-520 cell (human esophageal squamous cell carcinoma cell); assay: Inhibition of the proliferation activity of KYSE-520 cell (CellTiter-Glo); format: cell-based; conditions: 120 h, KYSE-520 cell proliferation, 5 days
Experimental: Test Example 2: Experiment on the Inhibition of the Proliferation Activity of KYSE-520 Cell (Human Esophageal Squamous Cell Carcinoma Cell)
cell: KYSE-520 (JCRB Cell Bank);
kit: CellTiter-Glo® Luminescent Cell Viability Assay Kit (Promega).
inoculation amount of cell: 1500 cells/well;
incubation conditions for compound: 37° C., 5% CO2;
incubation duration: 5 days;
detecting temperature: room temperature;
chemiluminescence detection using the BMG PHERAstar FS reader.
Cells were cultured in a medium containing 10% fetal bovine serum under the culture conditions of 37° C. and 5% CO2. An appropriate amount of cells were plated into a 96-well plate and cultured overnight in an incubator to allow the cells to adhere to the wall. The following day, the medium was removed and a complete medium containing a pre-diluted compound was added and incubated at 37° C. for 5 days. On the fifth day, the detection reagent CellTiter-Glo® was added into each well. Chemiluminescence was adopted to detect the relative luminescence units (RLUs) of the wells.
The result of a well containing cell-free medium, treated with CellTiter-Glo®, was obtained as the blank value. Cell viability (%)=(sample RLU−blank RLU)/(vehicle RLU−blank RLU)×100%, and maximum inhibition rate (%)=100%−cell viabilitymax. conc. (%). The half maximal inhibitory concentration (IC50) of the compound was calculated by fitting the curve according to the four-parameter logistic model.

SMILES	IC50 [1]	pIC50 [2]
Cc1nc(N2CCC3(CC2)CO[C@@H](C)[C@H]3N)c(CO)nc1Sc1ccnc(N2CCCC2CO)c1Cl (some centres unmarked) [Example 1]	6.03 nM	6.44
C[C@@H]1OCC2(CCN(c3ncc(Sc4ccnc(N5CCCC5CO)c4Cl)nc3CO)CC2)[C@@H]1N (some centres unmarked) [Example 2]	1.82 nM	7.00
C[C@@H]1OCC2(CCN(c3ncc(Sc4ccnc(N5CC(CC#N)C5)c4Cl)nc3CO)CC2)[C@@H]1N [Example 5, 2-(1-(4-(5-((3S,4S)-4-amino-3-methyl-2-oxa-8-azaspiro[4.5]decan-8-yl)-6-(hydroxymethyl)pyrazin-2-ylthio)-3-chloropyridin-2-yl)azetidin-3-yl)acetonitrile]	1.22 nM	7.22
C[C@@H]1OCC2(CCN(c3ncc(Sc4ccnc(N5CC(CO)C5)c4Cl)nc3CO)CC2)[C@@H]1N [Example 6, (3-((3S,4S)-4-amino-3-methyl-2-oxa-8-azaspiro[4.5]decan-8-yl)-6-(3-chloro-2-(3-(hydroxymethyl)azetidin-1-yl)pyridin-4-ylthio)pyrazin-2-yl)methanol]	1.76 nM	7.40
C[C@@H]1OCC2(CCN(c3ncc(Sc4ccnc(N5CC(C(C)(C)O)C5)c4Cl)nc3CO)CC2)[C@@H]1N [Example 12, 2-(1-(4-(5-((3S,4S)-4-amino-3-methyl-2-oxa-8-azaspiro[4.5]decan-8-yl)-6-(hydroxymethyl)pyrazin-2-ylthio)-3-chloropyridin-2-yl)azetidin-3-yl)propan-2-ol]	2.5 nM	7.40
CC(C)(O)C1CN(c2nccc(Sc3cnc(N4CCC5(CC4)COC[C@H]5N)c(CO)n3)c2Cl)C1 [Example 13, (S)-2-(1-(4-(5-(4-amino-2-oxa-8-azaspiro[4.5]decan-8-yl)-6-(hydroxymethyl)pyrazin-2-ylthio)-3-chloropyridin-2-yl)azetidin-3-yl)propan-2-ol]	4.9 nM	–
C[C@@H]1OCC2(CCN(c3ncc(Sc4ccnc(NCC5(O)CC5)c4Cl)nc3CO)CC2)[C@@H]1N [Example 15, 1-((4-(5-((3S,4S)-4-amino-3-methyl-2-oxa-8-azaspiro[4.5]decan-8-yl)-6-(hydroxymethyl)pyrazin-2-ylthio)-3-chloropyridin-2-ylamino)methyl)cyclopropan-1-ol]	2.4 nM	7.40
CC(O)C1CN(c2nccc(Sc3cnc(N4CCC5(CC4)CO[C@@H](C)[C@H]5N)c(CO)n3)c2Cl)C1 (stereo partly drawn) [Example 17, 1-(1-(4-(5-((3S,4S)-4-amino-3-methyl-2-oxa-8-azaspiro[4.5]decan-8-yl)-6-(hydroxymethyl)pyrazin-2-ylthio)-3-chloropyridin-2-yl)azetidin-3-yl)ethan-1-ol]	2.5 nM	7.52
C[C@@H]1OCC2(CCN(c3ncc(Sc4ccnc(N5CCCC5CC(N)=O)c4Cl)nc3CO)CC2)[C@@H]1N (stereo partly drawn) [Example 19, 2-(1-(4-(5-((3S,4S)-4-amino-3-methyl-2-oxa-8-azaspiro[4.5]decan-8-yl)-6-(hydroxymethyl)pyrazin-2-ylthio)-3-chloropyridin-2-yl)pyrrolidin-2-yl)acetamide]	1.5 nM	6.72
COCC1CN(c2nccc(Sc3cnc(N4CCC5(CC4)CO[C@@H](C)[C@H]5N)c(CO)n3)c2Cl)C1 [Example 21, (3-((3S,4S)-4-amino-3-methyl-2-oxa-8-azaspiro[4.5]decan-8-yl)-6-(3-chloro-2-(3-(methoxymethyl)azetidin-1-yl)pyridin-4-ylthio)pyrazin-2-yl)methanol]	1.15 nM	6.96
CC(C)(O)C1CN(c2nccc(Sc3cnc(N4CCC5(CC4)Oc4ccccc4[C@H]5N)c(CO)n3)c2Cl)C1 [Example 22, (R)-2-(1-(4-(5-(3-amino-3H-spiro[benzofuran-2,4′-piperidin]-1′-yl)-6-(hydroxymethyl)pyrazin-2-ylthio)-3-chloropyridin-2-yl)azetidin-3-yl)propan-2-ol]	4.3 nM	7.30
CC(C)(O)C1CN(c2nccc(Sc3cnc(N4CCC5(CC4)Cc4ccccc4[C@H]5N)c(CO)n3)c2Cl)C1 [Example 23, (S)-2-(1-(4-(5-(1-amino-1,3-dihydrospiro[indene-2,4′-piperidin]-1′-yl)-6-(hydroxymethyl)pyrazin-2-ylthio)-3-chloropyridin-2-yl)azetidin-3-yl)propan-2-ol]	1.9 nM	6.85
Cc1nc(N2CCC3(CC2)CO[C@@H](C)[C@H]3N)c(CO)nc1Sc1ccnc(N2CC(CS(C)(=O)=O)C2)c1Cl [Example 25, (3-((3S,4S)-4-amino-3-methyl-2-oxa-8-azaspiro[4.5]decan-8-yl)-6-(3-chloro-2-(3-(methylsulfonylmethyl)azetidin-1-yl)pyridin-4-ylthio)-5-methylpyrazin-2-yl)methanol]	7 nM	–
C[C@@H]1OCC2(CCN(c3ncc(Sc4ccnc(N5CC(CS(C)(=O)=O)C5)c4Cl)nc3CO)CC2)[C@@H]1N [Example 26, (3-((3S,4S)-4-amino-3-methyl-2-oxa-8-azaspiro[4.5]decan-8-yl)-6-(3-chloro-2-(3-(methylsulfonylmethyl)azetidin-1-yl)pyridin-4-ylthio)pyrazin-2-yl)methanol]	0.7 nM	7.52
C[C@@H]1OCC2(CCN(c3ncc(Sc4ccnc(N5CC(C)(CO)C5)c4Cl)nc3CO)CC2)[C@@H]1N [Example 27, (3-((3S,4S)-4-amino-3-methyl-2-oxa-8-azaspiro[4.5]decan-8-yl)-6-(3-chloro-2-(3-(hydroxymethyl)-3-methylazetidin-1-yl)pyridin-4-ylthio)pyrazin-2-yl)methanol]	4.1 nM	7.22
C[C@@H]1OCC2(CCN(c3cnc(Sc4ccnc(N5CC(C(C)(C)O)C5)c4Cl)cn3)CC2)[C@@H]1N [Example 28, 2-(1-(4-(5-((3S,4S)-4-amino-3-methyl-2-oxa-8-azaspiro[4.5]decan-8-yl)pyrazin-2-ylthio)-3-chloropyridin-2-yl)azetidin-3-yl)propan-2-ol]	2.45 nM	–
C[C@@H]1OCC2(CCN(c3ncc(Sc4ccnc(N5CC(C)(CS(C)(=O)=O)C5)c4Cl)nc3CO)CC2)[C@@H]1N [Example 29, (3-((3S,4S)-4-amino-3-methyl-2-oxa-8-azaspiro[4.5]decan-8-yl)-6-(3-chloro-2-(3-methyl-3-(methylsulfonylmethyl)azetidin-1-yl)pyridin-4-ylthio)pyrazin-2-yl)methanol]	1.68 nM	7.40
C[C@@H]1OCC2(CCN(c3ncc(Sc4ccnc(N5CC(C(C)(C)O)C5)c4F)nc3CO)CC2)[C@@H]1N [Example 40, 2-(1-(4-(5-((3S,4S)-4-amino-3-methyl-2-oxa-8-azaspiro[4.5]decan-8-yl)-6-(hydroxymethyl)pyrazin-2-ylthio)-3-fluoropyridin-2-yl)azetidin-3-yl)propan-2-ol]	4.13 nM	–
